Laboratory results as given in PMC4805251, “Novel Antimicrobial Peptides EeCentrocins 1, 2 and EeStrongylocin 2 from the Edible Sea Urchin Echinus esculentus Have 6-Br-Trp Post-Translational Modifications” (PLoS ONE, 2016).
Values after ≈ are worked out from the molar mass of the structure shown. Like-named read-outs stand apart in the source and are kept apart here. Bridge positions count the residues as written; N and C are the ends. Square brackets hold non-standard residues; d marks the D form. Ends that are not written are not given here. Peptide text beside a SMILES is read from it. I, II: the chains in the order shown. Trp(6-Br) = N[C@@H](Cc1c[nH]c2cc(Br)ccc12)C(=O)O

How the values were obtained:
Assay type in all cases: cell-based
[1] = system: Corynebacterium glutamicum (ATCC 13032)
Text: (§1) Organic phase extract, SPE eluates and HPLC-fractions were screened for antibacterial activity against two strains of Gram-positive and two strains of Gram-negative bacteria; Corynebacterium glutamicum (ATCC 13032), Staphylococcus aureus (ATCC 9144), Pseudomonas aeruginosa #1 (ATCC 27853) and Escherichia coli #1 (ATCC 25922). For extended antimicrobial bioactivity screening, the following bacterial strains were used, three strains of Gram-positive bacteria; S. epidermidis #1 (5179-R1) kindly provided by Holger Rohde, S. epidermidis #2, RP62A (ATCC 35984) and Bacillus subtilis (ATCC 23857) in addition to the Gram-negative P. aeruginosa #2, PA 01 (ATCC 15692, DSM 19880) and E. coli #2, NR 698 (MC4100/ptD4213).
(§2) Cultures stored at -80°C were smeared onto agar plates and cultured for 24 h at 35°C. One colony of each bacterial strain was transferred to 5 ml liquid Müller-Hinton (MH, Difco, Lawrence, KS, USA) medium in a glass tube and left shaking at room temperature overnight at 600 rpm. The cultures of actively growing bacteria (20 μl) were further inoculated in 5 ml MH medium and left shaking for 2 h at room temperature. The antibacterial assays were performed as previously described by. Briefly, the bacterial cultures were diluted with medium to 1.3–1.5 × 10^4 bacteria/ml final concentrations and an aliquot of 50 μl was added to each well in 96-well Nunclon^TM microtiter plates (Nagle Nunc Int., Denmark) preloaded with 50 μl test sample solutions, i.e. extracts, eluates or peptides.
(§3) The test plates were incubated for 24 h at 35°C with optical density (OD595) recorded every hour using an Envision 2103 multilabel reader, controlled by the Wallac Envision manager (PerkinElmer, CT, USA). Antibacterial activity was defined as a sample showing >90% inhibition (as measured by optical density) compared to the negative (growth) controls, consisting of bacteria and water. Oxytetracycline (20 μM) served as a positive (inhibition) control. The minimum inhibitory concentration (MIC) was defined as the lowest concentration of a sample displaying >90% inhibition.
(§4) ACN-phases and SPE eluates were tested with two-fold serial dilutions ranging from 5.0 to 0.005 mg/ml (5.0, 2.5, 1.25, 0.63, 0.31, 0.16, 0.08, 0.04, 0.02, 0.01, 0.005 mg/ml) whereas HPLC-fractions were tested undiluted for antibacterial activity. Pure, native peptides and synthetic peptides (described in section 2.11) were tested for antimicrobial activity in concentrations ranging from 100 to 0.1 μM in two-fold serial dilutions (100, 50, 25, 12.5, 6.25, 3.13, 1.56, 0.78, 0.39, 0.20, 0.10 μM). Antimicrobial assays involving natural peptides (i.e. fractionated natural material) were run only once due to limited quantities, whereas all other assays were run in triplicates.

[2] = system: Pseudomonas aeruginosa #1 (ATCC 27853)
Text: as §1, §2, §3, §4

[3] = system: Staphylococcus aureus (ATCC 9144)
Text: as §1, §2, §3, §4

[4] = system: Escherichia coli #1 (ATCC 25922)
Text: as §1, §2, §3, §4

[5] = system: Gram-positive and Gram-negative bacteria (tested strains); details: 24 h
Text: as §1, with “(MC4100/ptD4213). […]” for “(MC4100/ptD4213).”
The test plates were incubated for 24 h at 35°C with optical density (OD595) recorded every hour using an Envision 2103 multilabel reader, controlled by the Wallac Envision manager (PerkinElmer, CT, USA). […]
ACN-phases and SPE eluates were tested with two-fold serial dilutions ranging from 5.0 to 0.005 mg/ml (5.0, 2.5, 1.25, 0.63, 0.31, 0.16, 0.08, 0.04, 0.02, 0.01, 0.005 mg/ml) whereas HPLC-fractions were tested undiluted for antibacterial activity. […] Antimicrobial assays involving natural peptides (i.e. fractionated natural material) were run only once due to limited quantities, whereas all other assays were run in triplicates.

[6] = system: Candida albicans (ATCC 10231)
Procedure: (§5) The synthetic peptides (see section 2.11) were also screened for antifungal activity against Candida albicans (ATCC 10231), Saccharomyces cerevisiae, Rhodotorula sp., Aureobasidium pullulans and Cladosporium sp. The antifungal assay was performed as described previously. Briefly, fungal spores were dissolved in potato dextrose broth (Difco, Lawrence, KS, USA) to a concentration of 4 × 10^5 spores/ml. The spores (50 μl) were inoculated on 96-well Nunclon^TM microtiter plates containing the synthetic peptides (50 μl) dissolved in MQ-H2O. […] MIC was defined as the lowest concentration of peptide giving no visible fungal growth. The negative (growth) control contained medium and fungal solution.
as §4

Aureobasidium pullulans = system: Aureobasidium pullulans
Procedure: as §5, §4

Saccharomyces cerevisiae = system: Saccharomyces cerevisiae
Procedure: as §5, §4

Cladosporium sp. = system: Cladosporium sp.
Procedure: as §5, §4

Rhodotorula sp. = system: Rhodotorula sp.
Procedure: as §5, §4

[7] = system: S. epidermidis #1 (5179-R1)
Text: as §1, §2, §3, §4

[8] = system: S. epidermidis #2, RP62A (ATCC 35984)
Text: as §1, §2, §3, §4

[9] = system: E. coli #2, NR 698 (MC4100/ptD4213)
Text: as §1, §2, §3, §4

[10] = system: P. aeruginosa #2, PA 01 (ATCC 15692, DSM 19880)
Text: as §1, §2, §3, §4

[11] = system: Bacillus subtilis (ATCC 23857)
Text: as §1, §2, §3, §4

[12] = MH medium, 24 h at 35°C, OD595, lowest concentration with >90% inhibition, value of Table 2, native peptides run once, synthetic in triplicates
[13] = MH medium, 24 h at 35°C, OD595, >90% inhibition, value of Table 2, native peptides run once, synthetic in triplicates

I: G[Trp(6-Br)][Trp(6-Br)]RRTVDKVRNAGRKVAGFASKACGALGH-OH / II: DIGKYCGYAHALN-NH2 (disulfide I:25-II:6) [EeCentrocin 1]
MIC C. glutamicum ([1]; ATCC 13032, 24 h): 0.78 µM
MIC P. aeruginosa #1 ([2]; ATCC 27853, 24 h): 0.78 µM
MIC S. aureus ([3]; ATCC 9144, 24 h): 0.78 µM
MIC E. coli #1 ([4]; ATCC 25922, 24 h): 0.1 µM

XNPFKKIAHRXCYPKNE (bicyclic or more) [EeStrongylocin 2, cysteine-rich antimicrobial peptide from E. esculentus with 3 disulphide bonds and a 6-Br-Trp]
MIC C. glutamicum [1, 12]: 1.56 µM
MIC P. aeruginosa #1 [2, 13]: 1.56 µM
MIC S. aureus [3, 12]: 3.13 µM
MIC E. coli #1 [4, 13]: 0.78 µM

CC(C)C[C@H](NC(=O)[C@H](C)NC(=O)CNC(=O)[C@H](CS)NC(=O)[C@H](C)NC(=O)[C@H](CCCCN)NC(=O)[C@H](CO)NC(=O)[C@H](C)NC(=O)[C@H](Cc1ccccc1)NC(=O)CNC(=O)[C@H](C)NC(=O)[C@@H](NC(=O)[C@H](CCCCN)NC(=O)[C@H](CCCNC(=N)N)NC(=O)CNC(=O)[C@H](C)NC(=O)[C@H](CC(N)=O)NC(=O)[C@H](CCCNC(=N)N)NC(=O)[C@@H](NC(=O)[C@H](CCCCN)NC(=O)[C@H](CC(=O)O)NC(=O)[C@@H](NC(=O)[C@@H](NC(=O)[C@H](CCCNC(=N)N)NC(=O)[C@H](CCCNC(=N)N)NC(=O)[C@H](Cc1c[nH]c2cc(Br)ccc12)NC(=O)[C@H](Cc1c[nH]c2cc(Br)ccc12)NC(=O)CN)[C@@H](C)O)C(C)C)C(C)C)C(C)C)C(=O)NCC(=O)N[C@@H](Cc1c[nH]cn1)C(=O)O [EeCentrocin 1 HC-diBr] (H-G[Trp(6-Br)][Trp(6-Br)]RRTVDKVRNAGRKVAGFASKACGALGH-OH)
MIC range towards bacteria [5]: 0.78 to 6.25 µM
MIC C. albicans ([6]; ATCC 10231, 24 h): 50 µM (≈ 171 µg/mL)
MIC raw data C. albicans ([6]; parallel 1 of three): 50 µM (≈ 171 µg/mL)
MIC raw data C. albicans ([6]; parallel 2 of three): 50 µM (≈ 171 µg/mL)
MIC raw data C. albicans ([6]; parallel 3 of three): 50 µM (≈ 171 µg/mL)
MIC A. pullulans (Aureobasidium pullulans; 24 h): 6.25 µM (≈ 21.3 µg/mL)
MIC raw data A. pullulans (Aureobasidium pullulans; parallel 1 of three): 6.25 µM (≈ 21.3 µg/mL)
MIC raw data A. pullulans (Aureobasidium pullulans; parallel 2 of three): 6.25 µM (≈ 21.3 µg/mL)
MIC raw data A. pullulans (Aureobasidium pullulans; parallel 3 of three): 6.25 µM (≈ 21.3 µg/mL)
MIC S. cerevisiae (Saccharomyces cerevisiae; 24 h): >100 µM
MIC raw data S. cerevisiae (Saccharomyces cerevisiae; parallel 1 of three): >100 µM
MIC raw data S. cerevisiae (Saccharomyces cerevisiae; parallel 2 of three): >100 µM
MIC raw data S. cerevisiae (Saccharomyces cerevisiae; parallel 3 of three): >100 µM
MIC Cladosporium sp. (Cladosporium sp.; 24 h): >100 µM
MIC raw data Cladosporium sp. (Cladosporium sp.; parallel 1 of three): >100 µM
MIC raw data Cladosporium sp. (Cladosporium sp.; parallel 2 of three): >100 µM
MIC raw data Cladosporium sp. (Cladosporium sp.; parallel 3 of three): >100 µM
MIC raw data Rhodotorula sp. (Rhodotorula sp.; parallel 1 of three): 12.5 µM (≈ 42.7 µg/mL)
MIC raw data Rhodotorula sp. (Rhodotorula sp.; parallel 2 of three): 12.5 µM (≈ 42.7 µg/mL)
MIC raw data Rhodotorula sp. (Rhodotorula sp.; parallel 3 of three): 12.5 µM (≈ 42.7 µg/mL)
MIC S. epidermidis #1 ([7]; #1 (5179-R1, 24 h)): 6.25 µM (≈ 21.3 µg/mL)
MIC raw data S. epidermidis #1 ([7]; parallel 1 of three): 6.25 µM (≈ 21.3 µg/mL)
MIC raw data S. epidermidis #1 ([7]; parallel 2 of three): 6.25 µM (≈ 21.3 µg/mL)
MIC raw data S. epidermidis #1 ([7]; parallel 3 of three): 6.25 µM (≈ 21.3 µg/mL)
MIC C. glutamicum ([1]; ATCC 13032, 24 h): 0.78 µM (≈ 2.66 µg/mL)
MIC raw data C. glutamicum ([1]; parallel 1 of three): 0.78 µM (≈ 2.66 µg/mL)
MIC raw data C. glutamicum ([1]; parallel 2 of three): 0.78 µM (≈ 2.66 µg/mL)
MIC raw data C. glutamicum ([1]; parallel 3 of three): 0.39 µM (≈ 1.33 µg/mL)
MIC S. epidermidis #2 ([8]; ATCC 35984, 24 h): 3.13 µM (≈ 10.7 µg/mL)
MIC raw data S. epidermidis #2 ([8]; parallel 1 of three): 3.13 µM (≈ 10.7 µg/mL)
MIC raw data S. epidermidis #2 ([8]; parallel 2 of three): 3.13 µM (≈ 10.7 µg/mL)
MIC raw data S. epidermidis #2 ([8]; parallel 3 of three): 3.13 µM (≈ 10.7 µg/mL)
MIC raw data P. aeruginosa #1 ([2]; parallel 1 of three): 1.56 µM (≈ 5.33 µg/mL)
MIC raw data P. aeruginosa #1 ([2]; parallel 2 of three): 1.56 µM (≈ 5.33 µg/mL)
MIC raw data P. aeruginosa #1 ([2]; parallel 3 of three): 1.56 µM (≈ 5.33 µg/mL)
MIC raw data E. coli #2 ([9]; parallel 1 of three): 1.56 µM (≈ 5.33 µg/mL)
MIC raw data E. coli #2 ([9]; parallel 2 of three): 1.56 µM (≈ 5.33 µg/mL)
MIC raw data E. coli #2 ([9]; parallel 3 of three): 0.78 µM (≈ 2.66 µg/mL)
MIC P. aeruginosa #2 ([10]; ATCC 15692, 24 h): 3.13 µM (≈ 10.7 µg/mL)
MIC raw data P. aeruginosa #2 ([10]; parallel 1 of three): 3.13 µM (≈ 10.7 µg/mL)
MIC raw data P. aeruginosa #2 ([10]; parallel 2 of three): 3.13 µM (≈ 10.7 µg/mL)
MIC raw data P. aeruginosa #2 ([10]; parallel 3 of three): 3.13 µM (≈ 10.7 µg/mL)
MIC S. aureus ([3]; ATCC 9144, 24 h): 3.13 µM (≈ 10.7 µg/mL)
MIC raw data S. aureus ([3]; parallel 1 of three): 3.13 µM (≈ 10.7 µg/mL)
MIC raw data S. aureus ([3]; parallel 2 of three): 3.13 µM (≈ 10.7 µg/mL)
MIC raw data S. aureus ([3]; parallel 3 of three): 1.56 µM (≈ 5.33 µg/mL)
MIC raw data E. coli #1 ([4]; parallel 1 of three): 1.56 µM (≈ 5.33 µg/mL)
MIC raw data E. coli #1 ([4]; parallel 2 of three): 1.56 µM (≈ 5.33 µg/mL)
MIC raw data E. coli #1 ([4]; parallel 3 of three): 0.78 µM (≈ 2.66 µg/mL)
MIC raw data B. subtilis ([11]; parallel 1 of three): 1.56 µM (≈ 5.33 µg/mL)
MIC raw data B. subtilis ([11]; parallel 2 of three): 1.56 µM (≈ 5.33 µg/mL)
MIC raw data B. subtilis ([11]; parallel 3 of three): 0.78 µM (≈ 2.66 µg/mL)
